According to US20220381772A1, “SYSTEMS AND METHODS FOR EVALUATING NK CELLS” (The Regents of The University of California, priority 2019, published 2022):
Entries after “also recorded” stand apart in the source; their conditions may differ.

Experiments:
Type in all cases: cell-based, human
[1] = test system: OSCCs; assay: Chemo-drug induced cell death, propidium iodide staining and flow cytometry; settings: patient-derived differentiated OSCCs
Description: (§1) OSCCs or OSCSCs were seeded at 1×10^5 cells/well in 24-well plate for 24 h prior to the addition of highly purified NK cells pre-treated with IL-2 (1000 units/ml) for 24 h. NK cells were added to tumor cells at 2:1 effector to target ratio. At time 0 when NK cells were added to the tumor culture, a final concentration of 10 μg/ml of propidium iodide (PI) was also added. The cells were then subsequently tracked for over 72 h using time-lapse microscopy with Nikon Eclipse Ti-E inverted microscope fitted with a culture chamber to provide cells with a stable temperature of 37° C. with 5% CO2. An image was taken every 15 min and a representation is shown at day 1, day 1½, and day 3. OSCSCs but not OSCCs which are lysed take up PI and appear orange in the time-lapse (A). NK cells were left untreated or treated with IL-2 (1000 units/ml), anti-CD16 mAb (3 μg/ml), or a combination of IL-2 (1000 units/ml) and anti-CD16 mAb (3 μg/ml) for 18 h before they were added to ^51Cr-labeled OSCSCs and OSCCs. NK cell-mediated cytotoxicity was determined using a standard 4 h ^51Cr release assay and the lytic units 30/10^6 cells were determined using inverse number of NK cells required to lyse 30% of the target cells×100 (B). NK cells were treated as described in (B) and each NK sample was either cultured in the absence or presence of OSCSCs and OSCCs at an NK cell to target cell ratio of 0.5:1. After an overnight incubation, the supernatants were removed from the co-cultures and the levels of IFN-γ secretion were determined using specific ELISAs. One of minimum three representative experiments is shown in each of (C). The surface expression of MHC class I and CD44 on OSCCs and OSCSCs were assessed with flow cytometric analysis after staining with the respective PE-conjugated antibodies. Isotype control antibodies were used as control. The numbers on the right hand corner are the percentages and the mean channel fluorescence intensities for each histogram (D). The surface expression of CD338 on OSCCs and OSCSCs was assessed by flow cytometric analysis after staining with PE-conjugated CD338 (right graphs in the histogram). Isotype control antibodies were used as control (left graphs in the histograms) (E). OSCCs and OSCSCs were left untreated or treated with 10-80 μg/ml of cisplatin for 18 h, after which the tumor cells were washed with 1×PBS, detached, and stained with propidium iodide (PI) and percent cell death was determined using flow cytometric analysis (F).

[2] = test system: OSCSCs; assay: as above
Description: as §1

[3] = test system: MP2 tumors; assay: Paclitaxel-induced cell death, propidium iodide staining; settings: for cell death: poorly differentiated MP2, 18-20 hours
Description: (§2) P-values of <0.05 were obtained for differences between MP2 vs. PL12 and Capan at the concentrations of 10 nM, 200 nM, 600 nM, 1000 nM and […] of Paclitaxel (n=2 per each experimental condition).
(§3) The viability of cells was determined by staining with propidium iodide (n=3/each experimental condition).

[4] = test system: NK-supernatant differentiated MP2 tumors; assay: as above; settings: for cell death: MP2 differentiated with NK-supernatants 5 days, paclitaxel 10 nM to 600 nM, 18-24 h
Description: as §3

[5] = test system: PL12 tumors; assay: as above; settings: for cell death: well-differentiated PL12, compared with MP2, 18-20 hours
Description: as §2

[6] = test system: Capan tumors; assay: as above
Description: as §2

[7] = test system: MP2 tumors; assay: Surface expression of CD44, CD54, MHC-class I and B7H1, flow cytometry; settings: rhIFN-γ 200 U/mL, 24 h
Description: (§4) Freshly isolated NK cells were left untreated or treated with IL-2 (1000 U/mL) or the combination of anti-CD16 mAb (3 μg/mL) and IL-2 (1000 U/mL) for 18 h before they were used in co-cultures with ^51Cr labeled MP2, and PL12. NK cell-mediated cytotoxicity was determined using 4-hour ^51Cr release assay, and the lytic units 30/10^6 cells were determined using inverse number of NK cells required to lyse 30% of the target cells×100 (n=5 independent experiments). (FIG. 25A). Cells were left untreated or treated with rhTNF-α (20 ng/mL), rhIFN-γ (200 U/mL) or the combination of rhTNF-α (20 ng/mL) and […] (200 U/mL) for 24 h. Afterwards, the cells were detached and the surface expression of CD44, CD54, MHC-class I and B7H1 were assessed using staining with PE conjugated antibodies followed by flow cytometric analysis. Isotype control antibodies were used as controls (FIG. 25B) MP2 and Capan cells were treated as described in FIG. 25A, and were detached from the tissue culture plates, labeled with ^51Cr and used in a standard 4-hour ^51Cr release assay using IL-2 (1000 U/mL) treated NK cells. Pre-treatment of NK cells with IL-2 (1000 U/mL) were carried out for 18-24 h. Percent cytotoxicity was determined at different effector to target ratio and the lytic units 30/10^6 cells were determined using inverse number of NK cells required to lyse 30% of the tumor cells×100 (FIG. 25C).

[8] = test system: MP2; assay: Resistance to NK cell mediated cytotoxicity after cytokine treatment, 4-hour 51Cr release assay; settings: rhTNF-α 20 ng/mL or rhIFN-γ 200 U/mL; IL-2 treated NK cells
Description: as §4

[9] = stem-like/poorly differentiated OSCSCs, cisplatin 10-80 μg/ml for 18 h in FIG. 1F

Molecule | cell death [1] | cell death ([2]; NK-differentiated OSCSCs) | cell death [2, 9] | cell death [3] | cell death [4] | cell death [5] | also measured
N.N.[Cl][Pt][Cl] [CDDP, cis-dichlorodiammineplatinum] | higher cell death | higher cell death | not susceptible to CDDP induced cell death; also recorded: minimal effects | resistant | killed | killed | –
CC(=O)O[C@H]1C(=O)[C@@]2(C)[C@H]([C@H](OC(=O)c3ccccc3)[C@]3(O)C[C@H](OC(=O)[C@H](O)[C@@H](NC(=O)c4ccccc4)c4ccccc4)C(C)=C1C3(C)C)[C@]1(OC(C)=O)CO[C@@H]1C[C@@H]2O [paclitaxel] | higher cell death | higher cell death | minimal effects | resistant | higher induction of cell death; also recorded: killed | much higher levels of cell death; also recorded: higher induction of cell death; also recorded: killed | cell death ([6]; well-differentiated Capan, compared with MP2, 18-20 hours): much higher levels of cell death; also recorded: higher induction of cell death
CC(=O)N[C@@H](CS)C(=O)O [NAC, N-Acetyl Cysteine] | – | – | – | – | – | – | paclitaxel mediated cell death on addition of NAC ([3]; NAC (20 nM) 24 h, followed by paclitaxel): increased paclitaxel mediated cell death; paclitaxel mediated cell death on addition of NAC ([4]; NAC (20 nM) 24 h, followed by paclitaxel 10 nM to 600 nM): increased cell death; also recorded: increased paclitaxel mediated death; paclitaxel mediated cell death on addition of NAC ([6]; NAC then paclitaxel): increased paclitaxel mediated cell death; paclitaxel mediated cell death on addition of NAC ([5]; NAC then paclitaxel): increased paclitaxel mediated cell death
rhIFN-γ: recombinant human IFN-γ from Biolegend | – | – | – | – | – | – | surface expression of B7H1 [7]: able to upregulate B7H1; surface expression of CD44, CD54, MHC-class I and B7H1 ([7]; rhTNF-α 20 ng/mL): increase surface expression of CD54 and MHC-class I
rhIFN-γ: recombinant human IFN-γ from Biolegend (protein, UniProt P01579 24-161, looked up) Interferon gamma: QDPYVKEAENLKKYFNAGHSDVADNGTLFLGILKNWKEESDRKIMQSQIVSFYFKLFKNFKDDQSIQKSVETIKEDMNVKFFNSNKKKRDDFEKLTNYSVTDLNVQRKAIHELIQVMAELSPAAKTGKRKRSQMLFRG | – | – | – | – | – | – | resistance against NK cell mediated cytotoxicity [8]: significant resistance
